# Where no end group is shown, it is not given here.
# Legend:
# [1] = test system: GFP-labeled HSV-1 virions; test: Binding of GFP-HSV-1 virions to the cell surface (confocal FM); format: cell-based; conditions: compound added to cell culture, then GFP-labeled HSV-1 virions
# Source text: This likely occurs due to compounds’ high positive charge leading to electrostatic binding of polycations to negatively charged glycoprotein receptors on the cell membrane, such as heparansulfate proteoglycans (HSPG)[75]. Optimizing compound permeability into cells can be facilitated by e.g. prodrug approach, lipid vesicle delivery, and nanoparticle delivery, as well as other pathways. Compound permeability will be optimized in the future. […] Furthermore, choosing a reconstituted nuclei system for the MOA-assay (as opposed to infecting a cell culture) provides the benefit of isolating the effect of the compound on the single step of viral DNA ejection while avoiding interference from other processes occurring within the cell during viral replication.
# Vero cell monolayers grown on chamber slides (Lab-Tek) were infected with a GFP-expressing HSV-1(K26GFP) at a MOI of 0.1 PFU per cell. Vero cells were also incubated with the same virus that was previously treated with different concentrations of the compounds to condense the viral DNA. The concentration of the compounds was calculated as described above. […]
# Supplementary file ppat.1008604.s003.pdf: S2 Fig Effect of the compounds on the binding of HSV-1 virions to the cell surface during infection. […] Cells were fixed at 2 hpi and assessed by the presence of a GFP virus signal (green). […]
# HSV-1 C-capsids = test: Reconstituted nuclei-capsid MOA-assay, ultrathin-sectioning EM of DNA ejection; format: biochemical; conditions: 37°C, 40 min; DAB-Am-4 58.5 μM, bPEI 600 39 μM, Arg^5+ 25 μM (N/P 1.5)
# Experimental: Once the integrity and functionality of the reconstituted nuclei-capsid system for MOA testing was established, we applied a stringent test of the antiviral activity of each compound. We used ultrathin-sectioning EM to visualize DNA injection from HSV-1 capsids into isolated nuclei with DAB-Am-4 (58.5 μM), bPEI 600 (39 μM), and Arg^5+(25 μM). Compound concentrations corresponded to an N/P ratio of 1.5 (scaled proportionally to virus concentration, as described above) (Fig 4). Purified DNA-filled C-capsids were incubated with isolated rat liver nuclei in the presence of cell cytosol supplemented with ATP regeneration system for 40 min at 37°C, providing optimum conditions, found to maximize capsid binding to NPCs with subsequent DNA ejection. […] Only capsids that appeared bound to the nuclear membrane are included in the statistics (more than 790 nuclei-bound capsids and over 140 nuclei were counted for each sample analysis, providing good statistics). [Note that micrographs shown in Raw 1 of Fig 4 are lower magnification images (13,500X) which show an area around a nuclear membrane with empty and DNA-filled capsids. For our analysis of capsids bound to NPCs, we only used higher magnification images (25,000X) shown in Raw 2, to identify capsids that were associated with visible NPCs. A larger collection of these EM-micrographs at magnification 25,000X with and without different compounds added is shown in a supporting raw data file (S5 Fig).]
# We built an in vitro viral HSV-1 DNA translocation system in which the HSV-1 genome was released into nucleoplasm in a homogenate solution mimicking the cytoplasm environment; see details in previously described protocol in ref.[41]. In a typical system, rat liver cell nuclei were incubated with C-capsids (HSV-1 or GFP-labeled HSV-1) in solution containing: (i) cytosol, (ii) BSA, (iii) ATP regeneration system; see details in ref.[41]. The system was incubated at 37°C for 40 min, sufficient for capsid binding to nuclei. For inhibition studies, wheat germ agglutinin (WGA) was preincubated with the nuclei prior to addition of C-capsids. For compound-induced inhibition of DNA ejection studies, C-capsids were preincubated with the polyvalent cationic agents at the concentrations described in the main text before adding capsids to nuclei.
# After incubation of nuclei with C-capsids, the samples were washed once with CBB buffer (1,000 rpm for 10 min in a microcentrifuge). The supernatant was then removed and replaced with a fixative (2.5% EM-grade glutaraldehyde and 2.0% EM-grade formaldehyde in 0.1 M sodium cacodylate buffer, pH 7.4) for 3 hours at 4 °C. The fixative was then removed, replaced briefly with buffer, and then replaced with 1% osmium tetroxide in buffer for 90 minutes. Each sample was then subjected to 10-minute buffer rinse, after which it was placed in 1% aqueous uranyl acetate and left overnight. The next day, each sample was dehydrated via a graded ethanol series, culminating in propylene oxide. Following a graded propylene oxide; Epon812 series, the nuclear pellets were embedded in Epon812 prior to cutting. Ultrathin (ca. 90 nm) Epon sections on grids were stained with 1% aqueous uranyl acetate and lead citrate. After the grids dried, areas of interest were imaged at 120 kV, spot 3 using a Tietz 2kx2k camera mounted on a Philips/FEI (now Thermo Fisher FEI) CM200 transmission electron microscope.
# Source text for MEF cell line: We also determined cytotoxicity in the murine MEF cell line, relevant to animal studies.
Compound,virus adsorption to the cell [1],Capsids bound to NPC: DNA-filled capsids (HSV-1 C-capsids) [%],Capsids bound to NPC: DNA-filled capsids (count) (HSV-1 C-capsids),Capsids bound to NPC: Empty capsids (HSV-1 C-capsids) [%],Capsids bound to NPC: Empty capsids (count) (HSV-1 C-capsids),CC50 (MEF cell line) [µM]
RRRRR [Arg^5+],prevents virus adsorption to the cell,50,399,50,398,–
NCCCN(CCCN)CCCCN(CCCN)CCCN [DAB-Am-4],prevents virus adsorption to the cell,60,479,40,313,22

# Source: paper PMC7377361, “Pressurized DNA state inside herpes capsids—A novel antiviral target” (PLoS Pathogens, 2020)
